Measurements from BindingDB's records for doi:10.1016/S1074-5521(02)00310-1 (Tohoku University, 2003).

Target: T1, Peptidyl-prolyl cis-trans isomerase ESS1 (Saccharomyces cerevisiae (strain ATCC 204508 / S288c), UniProt P22696)
T1 sequence (P22696 whole entry): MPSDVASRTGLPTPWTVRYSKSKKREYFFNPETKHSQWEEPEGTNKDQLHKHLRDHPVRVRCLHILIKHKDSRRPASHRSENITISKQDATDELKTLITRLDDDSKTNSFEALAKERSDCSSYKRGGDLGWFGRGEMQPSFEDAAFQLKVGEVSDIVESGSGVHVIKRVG
Test: Pin1 Inhibition Assay
Details: pH 7; 0 °C
Protocol: Assay was carried out measuring the MCA fluorescence using Suc-Ala-Glu-Pro-Phe-MCA as substrate purchased from Japan Peptide Institute Co.

| SMILES | IC50 |
| --- | --- |
| COc1ccc(C2CC(O)(c3ccccc3)Oc3c(C)ccc(C)c32)cc1 (stereo not drawn) [4-(4-methoxyphenyl)-5,8-dimethyl-2-phenyl-chroman-2-ol] | 5 µM |
| COc1ccc(Br)cc1[C@H]1[C@@H]2C=CCC[C@@]2(C)C(=O)N1Cc1ccccc1 [(3R,3aR,7aR)-2-benzyl-3-(5-bromo-2-methoxy-phenyl)-7a-methyl-3,3a,6,7-tetrahydroisoindol-1-one] | 5 µM |
| CCOC(=O)c1ccc(NC(=O)c2[nH]cnc2C(=O)N[C@@H](Cc2ccccc2)C(=O)OC(C)(C)C)cc1 [ethyl 4-[[5-[[(2S)-1-[(2-methylpropan-2-yl)oxy]-1-oxidanylidene-3-phenyl-propan-2-yl]carbamoyl]-1H-imidazol-4-yl]carbonylamino]benzoate] | > 10 µM |
| Cc1cccc(NC(=O)c2[nH]cnc2C(=O)N[C@@H](CCCCNC(=O)OC(C)(C)C)C(=O)OC(C)(C)C)c1 [ILP-IV-14] | > 10 µM |
| CCOC(=O)c1ccc(NC(=O)c2[nH]cnc2C(=O)N[C@@H](CCCCNC(=O)OC(C)(C)C)C(=O)OC(C)(C)C)cc1 [MLS000849609] | 2.5 µM |
| COc1ccccc1-c1cc(=O)c2c(O)ccc([N+](=O)[O-])c2o1 [MLS000518626] | > 10 µM |
| CC(C)C[C@H](NC(=O)c1[nH]cnc1C(=O)N[C@@H](C)C(=O)OC(C)(C)C)C(=O)OCc1ccccc1 [(phenylmethyl) (2S)-4-methyl-2-[[4-[[(2S)-1-[(2-methylpropan-2-yl)oxy]-1-oxidanylidene-propan-2-yl]carbamoyl]-1H-imidazol-5-yl]carbonylamino]pentanoate] | > 10 µM |
| CC[C@@H]1CC=C[C@H]2[C@H]1C(=O)N(Cc1ccccc1)[C@H]2c1ccc(OC)c(Cl)c1 [(3R,3aS,7R,7aS)-3-(3-chloranyl-4-methoxy-phenyl)-7-ethyl-2-(phenylmethyl)-3a,6,7,7a-tetrahydro-3H-isoindol-1-one] | 2 µM |
| Cc1ccc(-c2cc([C@H]3[C@@H]4C=CCC[C@@]4(C)C(=O)N3Cc3ccccc3)ccc2F)cc1 [(3R,3aR,7aR)-3-[4-fluoro-3-(4-methylphenyl)phenyl]-7a-methyl-2-(phenylmethyl)-3,3a,6,7-tetrahydroisoindol-1-one] | 5 µM |
| CC(C)C[C@H](NC(=O)c1[nH]cnc1C(=O)N1CCc2ccccc2C1)C(=O)OCc1ccccc1 [(2S)-2-[[[5-[3,4-dihydro-1H-isoquinolin-2-yl(oxo)methyl]-1H-imidazol-4-yl]-oxomethyl]amino]-4-methylpentanoic acid (phenylmethyl) ester] | > 1.5 µM |
| COc1ccc(C2/C=C\CN(C(=O)c3ccccc3)CC(=O)N2Cc2ccc(F)cc2)cc1 (stereo not drawn) | > 10 µM |
| C[C@@]12CCC=C[C@H]1[C@H](c1ccc3ccccc3c1Br)N(Cc1ccccc1)C2=O [(3R,3aR,7aR)-3-(1-bromanylnaphthalen-2-yl)-7a-methyl-2-(phenylmethyl)-3,3a,6,7-tetrahydroisoindol-1-one] | 1.5 µM |
| O=C(O)CN1C(=O)c2cccc3cccc(c23)C1=O [(1,3-dioxo-1H-benzo[de]isoquinolin-2(3H)-yl)acetic acid] | > 10 µM |
